Key:
[1] = system: CYPIR (Rice Flatsedge); experiment: Postemergence weed control under flooded paddy conditions; type: in vivo, Cyperus iria; conditions: postemergence weeds, 3-4 weeks after treatment
How it was run: (§1)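 With weeds 3 to 5 cm tall and rice at the 1.5 to 2.5 leaf stage, containers were flooded and water held 1.5 to 3 cm above soil. Compounds in 50/50 v/v aqueous/acetone went into the flood water at about 0.0313 to 0.500 kg/ha a.i. Effects were visually rated 0–9 against controls after three to four weeks in the greenhouse.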

[2] = system: ECHORC (Watergrass (Calif.)); experiment: Preemergence weed control under flooded paddy conditions; type: in vivo, Echinochloa oryzoides; conditions: rated 3-4 weeks after treatment
How it was run: (§2)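 Silt loam, seeds in top 0.5 cm; flood held 1.5-3 cm; test cpd as acetone/water 50/50 into flood water, ~0.0313-0.500 kg/ha a.i.; greenhouse 3-4 wk; visual 0-9 score vs control.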

[3] = system: IPOHE (Morningglory, Ivyleaf); experiment: Preemergence herbicidal evaluation; type: in vivo, Ipomoea hederacea; conditions: rated 4-5 weeks after treatment
How it was run: (§3)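 In this greenhouse assay, monocot and dicot seeds are planted in soil and treated prior to emergence with an aqueous acetone spray (about 0.0156-0.500 kg/ha). Plants are assessed visually against control on a 0-9 scale after 4-5 weeks.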

[4] = system: GALAP (Galium); experiment: Postemergence herbicidal evaluation; type: in vivo, Galium aparine
How it was run: (§4)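 ~2-wk seedlings; postemergence spray, 40 psi; vehicle 1:1 acetone:water + 0.5% Tween 20; rate ≈0.0156–0.500 kg/ha; greenhouse hold; scored 4–5 wk after treatment, 0–9 scale vs control; repeat tests averaged.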

[5] = system: MOOVA (Monochoria); experiment: Preemergence weed control under flooded paddy conditions; type: in vivo, Monochoria vaginalis; conditions: rated 3-4 weeks after treatment
How it was run: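 Flooded-pot preemergence screen with silt loam and seeds in the upper 0.5 cm. Dose about 0.0313 to 0.500 kg/ha, delivered into flood water; visual 0-9 score after 3 to 4 weeks.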

[6] = system: ABUTH (Velvetleaf); experiment: Postemergence herbicidal evaluation; type: in vivo, Abutilon theophrasti
How it was run: as §4

[7] = system: ORYSAT (Rice, Tebonnet); experiment: Postemergence herbicidal evaluation; type: in vivo, Oryza sativa, (L.) Tebonnet
How it was run: as §4

[8] = system: SAGPY (Arrowhead (Pygmaea)); experiment: Postemergence weed control under flooded paddy conditions; type: in vivo, Sagittaria pygmaea; conditions: postemergence weeds, 3-4 weeks after treatment
How it was run: as §1

[9] = system: ZEAMX (Corn, Field); experiment: Preemergence herbicidal evaluation; type: in vivo, Zea mays; conditions: rated 4-5 weeks after treatment
How it was run: as §3

[10] = system: TRZAWR (Wheat, Winter, cv Riband); experiment: Preemergence herbicidal evaluation; type: in vivo, Triticum aestivum; conditions: rated 4-5 weeks after treatment
How it was run: as §3

[11] = system: ECHCG (Barnyardgrass); experiment: Postemergence herbicidal evaluation; type: in vivo, Echinochloa crus-galli
How it was run: as §4

[12] = system: CYPSE (Flatsedge); experiment: Postemergence weed control under flooded paddy conditions; type: in vivo, Cyperus serotinus; conditions: postemergence weeds, 3-4 weeks after treatment
How it was run: as §1

[13] = system: SETVI (Foxtail, Green); experiment: Postemergence herbicidal evaluation; type: in vivo, Setaria viridis
How it was run: as §4

[14] = system: CYPIR (Rice Flatsedge); experiment: Preemergence weed control under flooded paddy conditions; type: in vivo, Cyperus iria; conditions: rated 3-4 weeks after treatment
How it was run: as §2

CCOC(=O)COc1ccccc1CC1S/C(=N/c2cc(-n3c(=O)cc(C(F)(F)F)n(C)c3=O)c(F)cc2Cl)N(CC(=O)OCC)C1=O (stereo not drawn) [Compound 42, 2-{{2-Chloro-5-[3,6-dihydro-3-methyl-2,6-dioxo-4-(trifluoromethyl)-1(2H)-pyrimidinyl]-4-fluoro-phenyl}imino}-5-(o-hydroxybenzyl)-4-oxo-3-thiazolidineacetic acid, ethyl ester, ester with ethyl glycolate]
Herbicidal rating CYPIR ([1]; rate 0.0313 kg/ha): 0.0 | Herbicidal rating CYPIR ([1]; rate 0.0625 kg/ha): 0.0 | Herbicidal rating CYPIR ([1]; rate 0.1250 kg/ha): 0.0 | Herbicidal rating CYPIR ([1]; rate 0.2500 kg/ha): 0.0 | Herbicidal rating ECHORC ([2]; 0.0313 kg/ha): 5.0 | Herbicidal rating ECHORC ([2]; 0.0625 kg/ha): 5.0 | Herbicidal rating ECHORC ([2]; 0.1250 kg/ha): 5.0 | Herbicidal rating ECHORC ([2]; 0.2500 kg/ha): 6.0 | Preemergence herbicidal rating IPOHE ([3]; rate 0.0313 kg/ha): 0.0 | Preemergence herbicidal rating IPOHE ([3]; rate 0.0625 kg/ha): 0.0 | Preemergence herbicidal rating IPOHE ([3]; rate 0.1250 kg/ha): 0.0 | Preemergence herbicidal rating IPOHE ([3]; rate 0.2500 kg/ha): 0.0 | Postemergence herbicidal rating GALAP ([4]; Rate 0.0158 kg/ha): 1.0 | Postemergence herbicidal rating GALAP ([4]; Rate 0.0315 kg/ha): 3.0 | Postemergence herbicidal rating GALAP ([4]; Rate 0.0630 kg/ha): 3.0 | Herbicidal rating MOOVA ([5]; 0.0313 kg/ha): 7.0 | Herbicidal rating MOOVA ([5]; 0.0625 kg/ha): 9.0 | Herbicidal rating MOOVA ([5]; 0.1250 kg/ha): 9.0 | Herbicidal rating MOOVA ([5]; 0.2500 kg/ha): 9.0 | Postemergence herbicidal rating ABUTH ([6]; Rate 0.0158 kg/ha): 9.0 | Postemergence herbicidal rating ABUTH ([6]; Rate 0.0315 kg/ha): 9.0 | Postemergence herbicidal rating ABUTH ([6]; Rate 0.0630 kg/ha): 9.0 | Postemergence herbicidal rating ORYSAT ([7]; Rate 0.0158 kg/ha): 2.5 | Postemergence herbicidal rating ORYSAT ([7]; Rate 0.0315 kg/ha): 2.5 | Postemergence herbicidal rating ORYSAT ([7]; Rate 0.0630 kg/ha): 3.0 | Herbicidal rating SAGPY ([8]; rate 0.0313 kg/ha): 0.0 | Herbicidal rating SAGPY ([8]; rate 0.0625 kg/ha): 0.0 | Herbicidal rating SAGPY ([8]; rate 0.1250 kg/ha): 0.0 | Herbicidal rating SAGPY ([8]; rate 0.2500 kg/ha): 3.0 | Preemergence herbicidal rating ZEAMX ([9]; rate 0.0313 kg/ha): 0.0 | Preemergence herbicidal rating ZEAMX ([9]; rate 0.0625 kg/ha): 1.0 | Preemergence herbicidal rating ZEAMX ([9]; rate 0.1250 kg/ha): 0.0 | Preemergence herbicidal rating ZEAMX ([9]; rate 0.2500 kg/ha): 1.0 | Preemergence herbicidal rating TRZAWR ([10]; rate 0.0313 kg/ha): 0.0 | Preemergence herbicidal rating TRZAWR ([10]; rate 0.0625 kg/ha): 0.0 | Preemergence herbicidal rating TRZAWR ([10]; rate 0.1250 kg/ha): 0.0 | Preemergence herbicidal rating TRZAWR ([10]; rate 0.2500 kg/ha): 0.0 | Postemergence herbicidal rating ECHCG ([11]; Rate 0.0158 kg/ha): 1.0 | Postemergence herbicidal rating ECHCG ([11]; Rate 0.0315 kg/ha): 2.0 | Postemergence herbicidal rating ECHCG ([11]; Rate 0.0630 kg/ha): 4.0 | Herbicidal rating CYPSE ([12]; rate 0.0313 kg/ha): 0.0 | Herbicidal rating CYPSE ([12]; rate 0.0625 kg/ha): 0.0 | Herbicidal rating CYPSE ([12]; rate 0.1250 kg/ha): 0.0 | Herbicidal rating CYPSE ([12]; rate 0.2500 kg/ha): 0.0 | Postemergence herbicidal rating SETVI ([13]; Rate 0.0158 kg/ha): 0.0 | Postemergence herbicidal rating SETVI ([13]; Rate 0.0315 kg/ha): 1.0 | Postemergence herbicidal rating SETVI ([13]; Rate 0.0630 kg/ha): 1.0 | Herbicidal rating CYPIR ([14]; 0.0313 kg/ha): 0.0 | Herbicidal rating CYPIR ([14]; 0.0625 kg/ha): 0.0 | Herbicidal rating CYPIR ([14]; 0.1250 kg/ha): 0.0 | Herbicidal rating CYPIR ([14]; 0.2500 kg/ha): 0.0

Reference: patent US20020137929A1, “1 - (3-heterocyclylphenyl) isothiourea, -isourea, -guanidine and -amidine herbicidal agents” (Intellectual Property Department, BASF Aktiengesellschaft, priority 1998, published 2002)
